pEC50: −log10 of the molar value.
The molecules below were run against T1, human CB2R (Homo sapiens, UniProt P34972) (assay: CB2R mediated modulation of cAMP synthesis).
T1 construct: host or cells: CHO cells
Assay type: cell-based
Description: B. CB2R Mediated Modulation of cAMP Synthesis:
Compounds of the invention are evaluated for their CB2 agonist or inverse agonistic activity in accordance with the following experimental method.
(§1) CHO cells expressing human CB2R (Euroscreen) are plated at a density of 5000 cells per well in 384 well plates and incubated overnight at 37° C. After removing the media, the cells are treated with test compounds diluted in stimulation buffer containing 1 mM IBMX, 0.25% BSA and 10 uM Forskolin. The assay is incubated for 30 minutes at 37° C. Cells are lysed and the cAMP concentration is measured using DiscoverX-XS cAMP kit, following the manufacturer's protocol. In this setting, agonists will decrease forskolin induced production of cAMP while inverse agonists will further increase forskolin induced production of cAMP. EC50 of agonists are calculated as follows. The maximal amount of cAMP produced by forskolin compared to the level of cAMP inhibited by 1 uM CP55940 is defined as 100%. […] Data is analyzed using a four-parameter logistic model. (Model 205 of XLfit 4.0).

T1 sequence (P34972 whole entry): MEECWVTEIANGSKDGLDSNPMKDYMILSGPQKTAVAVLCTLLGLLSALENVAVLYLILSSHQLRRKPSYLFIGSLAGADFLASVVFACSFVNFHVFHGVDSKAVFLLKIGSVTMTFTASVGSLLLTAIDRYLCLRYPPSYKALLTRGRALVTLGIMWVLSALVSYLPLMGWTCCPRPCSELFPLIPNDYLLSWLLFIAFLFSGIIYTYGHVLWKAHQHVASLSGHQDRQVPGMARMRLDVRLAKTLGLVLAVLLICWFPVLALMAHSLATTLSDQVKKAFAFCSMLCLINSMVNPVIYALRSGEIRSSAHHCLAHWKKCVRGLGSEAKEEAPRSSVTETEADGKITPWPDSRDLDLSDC

Row | Compound | pEC50
1 | CC(C)(CO)c1cc(NC(=O)C(C)(C)S(=O)(=O)C2CCOCC2)on1 | 7.96
2 | COc1ccc(-c2nnc(NC(=O)C(C)(C)S(=O)(=O)CC3CCOCC3)[nH]2)cc1 | 8.02
3 | CC(C)(CO)c1cc(NC(=O)C(C)(C)S(=O)(=O)C2CCCC2)on1 | 7.12
4 | CC(C)(CO)c1cc(NC(=O)C(C)(C)S(=O)(=O)CC2CCC2)on1 | 7.09
5 | COc1ccc(-c2nnc(NC(=O)C(C)(C)S(=O)(=O)C3CCOCC3)[nH]2)cc1 | 9.18
6 | CC(C)(CO)c1cc(NC(=O)C(C)(C)S(=O)(=O)c2ccc(F)cc2)on1 | 7.52
7 | CC(C)(C(=O)Nc1nnc(-c2ccc(O)cc2)[nH]1)S(=O)(=O)CC1CCOCC1 | 7.00
8 | CC(C)(C(=O)Nc1nnc(-c2ccc(O)cc2)[nH]1)S(=O)(=O)C1CCOCC1 | 8.30
9 | COCC(C)(C)c1cc(NC(=O)C(C)(C)S(=O)(=O)CC2CCOCC2)on1 | 7.54
10 | COc1ccc(-c2nnc(NC(=O)C(C)(C)S(=O)(=O)C3CCCC3)[nH]2)cc1 | 7.85
11 | COc1ccc(-c2nnc(NC(=O)C(C)(C)S(=O)(=O)CC(C)C)[nH]2)cc1 | 7.16
12 | COc1ccc(-c2nnc(NC(=O)C(C)(C)S(=O)(=O)C3CCN(S(C)(=O)=O)CC3)[nH]2)cc1 | 7.80
13 | COc1ccc(-c2nnc(NC(=O)C(C)(C)S(=O)(=O)c3ccc(S(C)(=O)=O)cc3F)[nH]2)cc1 | 8.68
14 | COc1ccc(-c2nnc(NC(=O)C(C)(C)S(=O)(=O)N3CCC3)[nH]2)cc1 | 7.49
15 | COc1ccc(-c2nnc(NC(=O)C(C)(C)S(=O)(=O)N3CC[C@@H](F)C3)[nH]2)cc1 | 7.48
16 | COCC(C)(C)c1cc(NC(=O)C(C)(C)S(=O)(=O)C2CCOCC2)on1 | 8.51
17 | CC(C)(CO)c1cc(NC(=O)C(C)(C)S(=O)(=O)C2CCN(S(C)(=O)=O)CC2)on1 | 7.85

Row | Compound | pEC50
18 | CC(C)(CO)c1cc(NC(=O)C(C)(C)S(=O)(=O)CC2CCC(=O)CC2)on1 | 7.17
19 | CC(C)(CO)c1cc(NC(=O)C(C)(C)S(=O)(=O)C2CCOCC2)no1 | 7.48
20 | CC(C)(CO)c1cc(NC(=O)C(C)(C)S(=O)(=O)CCCC(F)(F)F)no1 | 7.60
21 | CC(C)(CO)c1nnc(NC(=O)C(C)(C)S(=O)(=O)C2CCOCC2)s1 | 7.32
22 | COc1ccc(-c2nnc(NC(=O)C(C)(C)S(=O)(=O)C[C@H]3CCOC3)[nH]2)cc1 | 7.05
23 | COc1ccc(-c2nnc(NC(=O)C(C)(C)S(=O)(=O)C[C@@H]3CCOC3)[nH]2)cc1 | 6.62
24 | COCC(C)(C)c1cc(NC(=O)C(C)(C)S(=O)(=O)C2CCOCC2)no1 | 8.46
25 | CC(C)(C(=O)Nc1cc(C2(CO)CCC2)no1)S(=O)(=O)C1CCOCC1 | 7.11
26 | CC(C)(C(=O)Nc1cc(C2(CO)CCCC2)no1)S(=O)(=O)C1CCOCC1 | 7.82
27 | CC(C)(C(=O)Nc1cc(C2(CO)CCCC2)no1)S(=O)(=O)CC1CCOCC1 | 6.69
28 | CCOCC(C)(C)c1cc(NC(=O)C(C)(C)S(=O)(=O)C2CCOCC2)on1 | 8.44
29 | CC(C)(C(=O)Nc1cc(C2(CO)CCCCC2)no1)S(=O)(=O)C1CCOCC1 | 7.42
30 | COc1ccc(-c2nnc(NC(=O)C(C)(C)S(=O)(=O)CC3CC3)[nH]2)cc1 | 7.49
31 | CC(C)(C(=O)Nc1nnc(-c2ccc(O)cc2)[nH]1)S(=O)(=O)c1ccc(F)cc1 | 8.40
32 | COCC(C)(C)c1cc(NC(=O)C(C)(C)S(=O)(=O)C2CCCC2)on1 | 7.82
33 | CC(C)(C(=O)Nc1cc(C2(CO)CCCC2)no1)S(=O)(=O)CC1CCC1 | 7.60

Each molecule was assayed against T2, human CB1R (Homo sapiens, UniProt P21554) (assay: CB1R mediated modulation of cAMP synthesis).
T2 construct: host or cells: CHO cells
Assay type: cell-based
Description: C. CB1R Mediated Modulation of cAMP Synthesis:
Compounds of the invention are evaluated for their CB1 agonist or inverse agonistic activity in accordance with the following experimental method.
as §1, with “CB1R” for “CB2R”

T2 sequence (P21554 whole entry): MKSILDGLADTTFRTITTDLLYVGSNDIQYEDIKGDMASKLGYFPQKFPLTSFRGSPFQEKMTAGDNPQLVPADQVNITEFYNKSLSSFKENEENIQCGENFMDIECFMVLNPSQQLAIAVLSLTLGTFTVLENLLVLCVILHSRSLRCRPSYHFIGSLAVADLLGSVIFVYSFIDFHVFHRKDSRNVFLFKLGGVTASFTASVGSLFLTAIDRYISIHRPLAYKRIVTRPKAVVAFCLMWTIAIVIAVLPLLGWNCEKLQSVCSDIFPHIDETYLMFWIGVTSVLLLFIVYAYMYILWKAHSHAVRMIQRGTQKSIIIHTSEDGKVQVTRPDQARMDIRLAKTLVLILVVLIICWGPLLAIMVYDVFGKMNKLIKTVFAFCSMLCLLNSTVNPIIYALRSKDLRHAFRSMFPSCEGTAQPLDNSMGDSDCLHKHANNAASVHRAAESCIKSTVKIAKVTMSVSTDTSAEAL

Row | Compound | pEC50
34 | CC(C)(CO)c1cc(NC(=O)C(C)(C)S(=O)(=O)C2CCOCC2)on1 | < 4.30
35 | COc1ccc(-c2nnc(NC(=O)C(C)(C)S(=O)(=O)CC3CCOCC3)[nH]2)cc1 | < 4.30
36 | CC(C)(CO)c1cc(NC(=O)C(C)(C)S(=O)(=O)C2CCCC2)on1 | < 4.70
37 | CC(C)(CO)c1cc(NC(=O)C(C)(C)S(=O)(=O)CC2CCC2)on1 | < 4.70
38 | COc1ccc(-c2nnc(NC(=O)C(C)(C)S(=O)(=O)C3CCOCC3)[nH]2)cc1 | < 4.70
39 | CC(C)(CO)c1cc(NC(=O)C(C)(C)S(=O)(=O)c2ccc(F)cc2)on1 | < 4.70
40 | CC(C)(C(=O)Nc1nnc(-c2ccc(O)cc2)[nH]1)S(=O)(=O)CC1CCOCC1 | < 4.70
41 | CC(C)(C(=O)Nc1nnc(-c2ccc(O)cc2)[nH]1)S(=O)(=O)C1CCOCC1 | < 4.70
42 | COCC(C)(C)c1cc(NC(=O)C(C)(C)S(=O)(=O)CC2CCOCC2)on1 | < 4.70
43 | COc1ccc(-c2nnc(NC(=O)C(C)(C)S(=O)(=O)C3CCCC3)[nH]2)cc1 | < 4.70
44 | COc1ccc(-c2nnc(NC(=O)C(C)(C)S(=O)(=O)CC(C)C)[nH]2)cc1 | < 4.70
45 | COc1ccc(-c2nnc(NC(=O)C(C)(C)S(=O)(=O)C3CCN(S(C)(=O)=O)CC3)[nH]2)cc1 | 4.53
46 | COc1ccc(-c2nnc(NC(=O)C(C)(C)S(=O)(=O)c3ccc(S(C)(=O)=O)cc3F)[nH]2)cc1 | < 4.70
47 | COc1ccc(-c2nnc(NC(=O)C(C)(C)S(=O)(=O)N3CCC3)[nH]2)cc1 | < 4.70
48 | COc1ccc(-c2nnc(NC(=O)C(C)(C)S(=O)(=O)N3CC[C@@H](F)C3)[nH]2)cc1 | < 4.30
49 | COCC(C)(C)c1cc(NC(=O)C(C)(C)S(=O)(=O)C2CCOCC2)on1 | < 4.70
50 | CC(C)(CO)c1cc(NC(=O)C(C)(C)S(=O)(=O)C2CCN(S(C)(=O)=O)CC2)on1 | < 4.30

Row | Compound | pEC50
51 | CC(C)(CO)c1cc(NC(=O)C(C)(C)S(=O)(=O)CC2CCC(=O)CC2)on1 | < 4.30
52 | CC(C)(CO)c1cc(NC(=O)C(C)(C)S(=O)(=O)C2CCOCC2)no1 | < 4.30
53 | CC(C)(CO)c1cc(NC(=O)C(C)(C)S(=O)(=O)CCCC(F)(F)F)no1 | < 4.70
54 | CC(C)(CO)c1nnc(NC(=O)C(C)(C)S(=O)(=O)C2CCOCC2)s1 | < 4.30
55 | COc1ccc(-c2nnc(NC(=O)C(C)(C)S(=O)(=O)C[C@H]3CCOC3)[nH]2)cc1 | < 4.30
56 | COc1ccc(-c2nnc(NC(=O)C(C)(C)S(=O)(=O)C[C@@H]3CCOC3)[nH]2)cc1 | < 4.30
57 | COCC(C)(C)c1cc(NC(=O)C(C)(C)S(=O)(=O)C2CCOCC2)no1 | < 4.30
58 | CC(C)(C(=O)Nc1cc(C2(CO)CCC2)no1)S(=O)(=O)C1CCOCC1 | < 4.30
59 | CC(C)(C(=O)Nc1cc(C2(CO)CCCC2)no1)S(=O)(=O)C1CCOCC1 | < 4.30
60 | CC(C)(C(=O)Nc1cc(C2(CO)CCCC2)no1)S(=O)(=O)CC1CCOCC1 | < 4.30
61 | CCOCC(C)(C)c1cc(NC(=O)C(C)(C)S(=O)(=O)C2CCOCC2)on1 | < 4.70
62 | CC(C)(C(=O)Nc1cc(C2(CO)CCCCC2)no1)S(=O)(=O)C1CCOCC1 | < 4.70
63 | COc1ccc(-c2nnc(NC(=O)C(C)(C)S(=O)(=O)CC3CC3)[nH]2)cc1 | < 4.30
64 | CC(C)(C(=O)Nc1nnc(-c2ccc(O)cc2)[nH]1)S(=O)(=O)c1ccc(F)cc1 | < 4.70
65 | COCC(C)(C)c1cc(NC(=O)C(C)(C)S(=O)(=O)C2CCCC2)on1 | < 4.70
66 | CC(C)(C(=O)Nc1cc(C2(CO)CCCC2)no1)S(=O)(=O)CC1CCC1 | < 4.70
